These results are taken from patent US20260166016A1, “GPR139 RECEPTOR AGONIST, PREPARATION METHOD THEREFOR, AND APPLICATION THEREOF” (NEUBO APPTECH CO., LTD., priority 2022, published 2026).

One may read the EC50 as the concentration at which the effect is half-maximal.

The assay has as its target T1, GPR139 (Homo sapiens, UniProt Q6DWJ6).
T1 construct: expressed in transfected cells; host or cells: HEK293
T1 sequence (Q6DWJ6 1-353): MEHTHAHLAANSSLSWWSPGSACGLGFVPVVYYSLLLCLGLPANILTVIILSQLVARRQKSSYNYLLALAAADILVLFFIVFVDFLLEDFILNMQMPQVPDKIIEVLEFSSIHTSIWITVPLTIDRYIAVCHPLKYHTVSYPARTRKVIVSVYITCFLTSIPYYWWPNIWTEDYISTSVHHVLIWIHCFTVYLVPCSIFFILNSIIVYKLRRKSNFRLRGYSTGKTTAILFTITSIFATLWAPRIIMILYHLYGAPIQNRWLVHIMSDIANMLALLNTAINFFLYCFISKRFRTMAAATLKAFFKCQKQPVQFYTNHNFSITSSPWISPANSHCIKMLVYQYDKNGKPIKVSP
In words: GPR139 FLIPR cell calcium signal detection in GPR139-transfected HEK293 cells. It is filed as cell-based. As to conditions: HEK293 cells transfected with GPR139, read-out: EC50 values of compounds for GPR139. As to the method: HEK293 cells were grown in a 10 cm culture dish containing DMEM complete medium (containing glutamine, sodium pyruvate, penicillin/streptomycin, 10% fetal bovine serum) and incubated at 37° C. in a 5% CO2 incubator until 90% confluency. Then subculture twice a week at a ratio of 1:5. During cell passaging, the culture medium was first completely removed, washed once with 4 mL of DPBS, and then 3 mL of trypsin digestion solution was added and mixed well. When cell dissociation was observed, the trypsin solution was aspirated and 5 mL of complete DMEM medium was added. The cells were dispersed by pipetting, and 1 mL of cell suspension was added to each of five new 10 cm culture dishes. Then, 7 mL of complete DMEM medium was supplemented to each dish. After mixing, the cells were cultured at 37° C. in a 5% CO2 incubator.
On the transfection day, cells were digested and seeded into one 10 cm culture dish at appropriate density. 6 mL of DMEM/F12 medium (containing glutamine, sodium pyruvate, HEPES, and fetal bovine serum) was added, and the cells were cultured for 5 hours at 37° C. in 5% CO2. A 50 mL sterile centrifuge tube (Tube A) was taken, and 1 mL of serum-free DMEM/F12 medium (containing glutamine, sodium pyruvate, and HEPES) was added, followed by 10 μg of GPR139 DNA. The mixture was mixed well. Another 50 mL sterile centrifuge tube (Tube B) was taken, and 1 mL of serum-free DMEM medium (containing glutamine, sodium pyruvate, and HEPES) was added, followed by 60 μL of Fugene HD transfection reagent. The mixture was mixed well. 1 mL of Fugene HD transfection reagent from Tube B was transferred to Tube A, mixed well, and incubated at room temperature for 20 minutes. 2 mL of DMEM/F12 medium (containing glutamine, sodium pyruvate, HEPES, and fetal bovine serum) was added to Tube A. After mixing, 4 mL of mixture from Tube A was transferred to the prepared 10 cm dish (total volume 10 mL). The cells were cultured for 20-24 hours at 37° C. in 5% CO2.
The next day, the transfected cells were digested with trypsin digestion solution, and appropriate DMEM/F12 medium (containing glutamine, sodium pyruvate, HEPES, penicillin/streptomycin, fetal bovine serum) was added. The cells were seeded into Matrigel coated 384-well plates with a cell density of 6.67×10^6 cells/mL, 30 μL/well. The 384-well plates were cultured at 37° C. in 5% CO2.
On the third day, 10 μL/well of FLIPR dye (diluted in HEPES solution containing Pluronic and Probenecid) was added to the 384-well cell plate. And the plate was incubated for 40 minutes at 37° C. in 5% CO2. Diluted compounds were added to the cell plate and calcium signals were measured using a FLIPR plate reader.
Data were analyzed using XL-fit software to obtain EC50 values for each compound.
With `C[C@H](NC(=O)CNC(=O)c1cccc(F)c1)c1ccccc1F` [NRB153], the EC50 fell in the range of 0.1 to 100 nM.

For `C[C@H](NC(=O)CNC(=O)c1cccc(F)c1)c1c(F)cccc1F` [NRB154], the EC50 lay within 100 to 1000 nM.

For `C[C@H](NC(=O)CNC(=O)c1cc(F)ccn1)c1ccccc1F` [NRB156], the EC50 was 100 to 1000 nM.

For the molecule `C[C@H](NC(=O)CNC(=O)c1cccc(Cl)c1)c1cc(F)ccc1F` [NRB178], the EC50 lay in the range of 0.1 to 100 nM.

Consider `C[C@H](NC(=O)CNC(=O)c1cccc(Cl)c1)c1cccc(F)c1F` [NRB180], for which the EC50 fell in the range of 0.1 to 100 nM.

Consider `C[C@H](NC(=O)CNC(=O)c1cc(F)cc(F)c1)c1c(F)cccc1F` [NRB202], for which the EC50 fell in the range of 0.1 to 100 nM.

On to `COc1cc(F)nc(C(=O)NCC(=O)N[C@@H](C)c2ccccc2F)c1` [NRB211], for which the EC50 was 0.1 to 100 nM.

Consider `C[C@H](NC(=O)CNC(=O)c1cc(F)cc(C(F)(F)F)n1)c1c(F)cccc1F` [NRB214], for which the EC50 is 100 to 1000 nM.

In the case of `COc1cc(F)nc(C(=O)NCC(=O)N[C@@H](C)c2c(F)cccc2F)c1` [NRB215], the EC50 is 0.1 to 100 nM.

On to `C[C@H](NC(=O)CNC(=O)c1cc(Cl)cc(Cl)c1)c1c(F)cccc1F` [NRB216], for which the EC50 fell in the range of 0.1 to 100 nM.

Turning to `COc1cc(Cl)cc(C(=O)NCC(=O)N[C@@H](C)c2c(F)cccc2F)n1` [NRB221], the concentration giving a half-maximal response (EC50) was 100 to 1000 nM.

In the case of `C[C@H](NC(=O)CNC(=O)c1cc(Cl)cc(C(F)(F)F)n1)c1c(F)cccc1F` [NRB222], the EC50 was in the range of 100 to 1000 nM.

For `C[C@H](NC(=O)CNC(=O)c1cc(Cl)cc(F)n1)c1c(F)cc(F)cc1F` [NRB225], the EC50 is 0.1 to 100 nM.

For `C[C@H](NC(=O)CNC(=O)c1cc(Cl)cc(C(F)(F)F)n1)c1c(F)cc(F)cc1F` [NRB227], the EC50 is 100 to 1000 nM.
